# Measurements taken from PubChem BioAssay (NCI).
#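 Cells were grown in 96-well plates and exposed to each compound for 48 hours at five concentrations; endpoints were interpolated linearly between bracketing concentrations, or set to the highest concentration if not reached. GI50: concentration for 50% inhibition of growth. Definition used: TGI = concentration required for complete inhibition of growth.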
# Columns and labels:
# Experiment in all cases: inhibition of tumour cell growth, NCI panel, 48 h
# [1] = tested on: MOLT-4 leukemia
# [2] = tested on: SNB-19 CNS
# [3] = tested on: SK-MEL-5 melanoma
# [4] = tested on: SF-268 CNS
# [5] = tested on: EKVX NSCLC
# [6] = tested on: BT-549 breast
# [7] = tested on: U251 CNS
# [8] = tested on: HCC-2998 colon
# [9] = tested on: OVCAR-5 ovarian
# [10] = tested on: MDA-MB-231 breast
# [11] = tested on: UO-31 renal
# [12] = tested on: OVCAR-4 ovarian
# [13] = tested on: MDA-MB-435
# [14] = tested on: ACHN renal
# [15] = tested on: MCF7 breast
# [16] = tested on: UACC-62 melanoma
# [17] = tested on: CCRF-CEM leukemia
# [18] = tested on: HOP-92 NSCLC
# [19] = tested on: IGROV1 ovarian
# [20] = tested on: NCI-H460 lung
# [21] = tested on: HL-60(TB) leukemia
# [22] = tested on: NCI-H226 lung
# [23] = tested on: SF-295 CNS
# [24] = tested on: HCT-116 colon
# [25] = tested on: SN12C renal
# [26] = tested on: RXF 393 renal
# [27] = tested on: LOX IMVI melanoma
# [28] = tested on: NCI/ADR-RES ovarian
# [29] = tested on: A549 NSCLC
# [30] = tested on: COLO 205 colon
# [31] = tested on: TK-10 renal
# [32] = tested on: KM12 colon
# [33] = tested on: DU-145 prostate
# [34] = tested on: SK-MEL-28 melanoma
# [35] = tested on: HOP-62 NSCLC
# [36] = tested on: SK-MEL-2 melanoma
# [37] = tested on: PC-3 prostate
# [38] = tested on: 786-0 renal
# [39] = tested on: RPMI-8226 leukemia
# [40] = tested on: SK-OV-3 ovarian
# [41] = tested on: HCT-15 colon
# [42] = tested on: SW-620 colon
# [43] = tested on: M14 melanoma
# [44] = tested on: NCI-H522 lung
# [45] = tested on: HS 578T breast
# [46] = tested on: NCI-H23 lung
# [47] = tested on: T-47D breast
# [48] = tested on: OVCAR-8 ovarian
# [49] = tested on: SNB-75 CNS
# [50] = tested on: UACC-257 melanoma
# [51] = tested on: SR leukemia
# [52] = tested on: OVCAR-3 ovarian
# [53] = tested on: K-562 leukemia
# [54] = tested on: CAKI-1 renal
# [55] = tested on: MALME-3M melanoma
# [56] = tested on: SF-539 CNS
compound,measurement,setting,value
CC(C)(C)CN1CCn2c(nc3c(N)nccc32)S1,GI50,[1],5.55 µM
same,TGI,[1],82 µM
same,GI50,[2],32.8 µM
same,TGI,[2],> 100 µM
same,GI50,[3],14.5 µM
same,TGI,[3],31.1 µM
same,GI50,[4],12.5 µM
same,TGI,[4],34.9 µM
same,GI50,[5],30.9 µM
same,TGI,[5],> 100 µM
same,GI50,[6],19.1 µM
same,TGI,[6],66.1 µM
same,GI50,[7],13.3 µM
same,TGI,[7],47.2 µM
same,GI50,[8],13.7 µM
same,TGI,[8],34.8 µM
same,GI50,[9],12.9 µM
same,TGI,[9],42 µM
same,GI50,[10],19.8 µM
same,TGI,[10],> 100 µM
same,GI50,[11],37.1 µM
same,TGI,[11],> 100 µM
same,GI50,[12],13.6 µM
same,TGI,[12],40.1 µM
same,GI50,[13],6.67 µM
same,TGI,[13],86.1 µM
same,GI50,[14],7.45 µM
same,TGI,[14],> 100 µM
same,GI50,[15],3.97 µM
same,TGI,[15],37 µM
same,GI50,[16],13.7 µM
same,TGI,[16],88.5 µM
same,GI50,[17],10.2 µM
same,TGI,[17],> 100 µM
same,GI50,[18],96.5 µM
same,TGI,[18],> 100 µM
same,GI50,[19],11.7 µM
same,TGI,[19],30.3 µM
same,GI50,[20],4.25 µM
same,TGI,[20],17.3 µM
same,GI50,[21],4.77 µM
same,TGI,[21],25.7 µM
same,GI50,[22],37.2 µM
same,TGI,[22],> 100 µM
same,GI50,[23],12 µM
same,TGI,[23],> 100 µM
same,GI50,[24],4.61 µM
same,TGI,[24],17.1 µM
same,GI50,[25],6.55 µM
same,TGI,[25],> 100 µM
same,GI50,[26],15.7 µM
same,TGI,[26],64.5 µM
same,GI50,[27],9.5 µM
same,TGI,[27],23.5 µM
same,GI50,[28],17.1 µM
same,TGI,[28],> 100 µM
same,GI50,[29],8.09 µM
same,TGI,[29],44.4 µM
same,GI50,[30],4.02 µM
same,TGI,[30],16.3 µM
same,GI50,[31],16.6 µM
same,TGI,[31],> 100 µM
same,GI50,[32],4.23 µM
same,TGI,[32],17.1 µM
same,GI50,[33],4.46 µM
same,TGI,[33],> 100 µM
same,GI50,[34],13.5 µM
same,TGI,[34],29.7 µM
same,GI50,[35],17 µM
same,TGI,[35],> 100 µM
same,GI50,[36],69.3 µM
same,TGI,[36],> 100 µM
same,GI50,[37],11 µM
same,TGI,[37],> 100 µM
same,GI50,[38],21 µM
same,TGI,[38],> 100 µM
same,GI50,[39],36.1 µM
same,TGI,[39],> 100 µM
same,GI50,[40],5.15 µM
same,TGI,[40],81 µM
same,GI50,[41],3.92 µM
same,TGI,[41],26.2 µM
same,GI50,[42],4.16 µM
same,TGI,[42],30.1 µM
same,GI50,[43],5.68 µM
same,TGI,[43],24.9 µM
same,GI50,[44],13.5 µM
same,TGI,[44],31.6 µM
same,GI50,[45],33.6 µM
same,TGI,[45],> 100 µM
same,GI50,[46],5.17 µM
same,TGI,[46],34 µM
same,GI50,[47],13 µM
same,TGI,[47],> 100 µM
same,GI50,[48],6.27 µM
same,TGI,[48],> 100 µM
same,GI50,[49],51.5 µM
same,TGI,[49],> 100 µM
same,GI50,[50],19.7 µM
same,TGI,[50],79.1 µM
same,GI50,[51],3.24 µM
same,TGI,[51],47.4 µM
same,GI50,[52],12.3 µM
same,TGI,[52],29.3 µM
same,GI50,[53],4.64 µM
same,TGI,[53],67.7 µM
same,GI50,[54],25.3 µM
same,TGI,[54],> 100 µM
same,GI50,[55],7.72 µM
same,TGI,[55],41.3 µM
same,GI50,[56],18.2 µM
same,TGI,[56],78.9 µM
